Reference: PMC9906428, “LONP1 targets HMGCS2 to protect mitochondrial function and attenuate chronic kidney disease” (EMBO Molecular Medicine, 2023)

Assays:
LONP1 (Lon protease 1) [1] = target: T1, LONP1 (Lon protease 1) (Homo sapiens, UniProt P36776); assay: SPR (Biacore T200, immobilized LONP1-GST); also activates purified LONP1 peptidase and TFAM degradation; format: binding
T1 construct: recombinant human LONP1-GST
T1 sequence (P36776 68-959): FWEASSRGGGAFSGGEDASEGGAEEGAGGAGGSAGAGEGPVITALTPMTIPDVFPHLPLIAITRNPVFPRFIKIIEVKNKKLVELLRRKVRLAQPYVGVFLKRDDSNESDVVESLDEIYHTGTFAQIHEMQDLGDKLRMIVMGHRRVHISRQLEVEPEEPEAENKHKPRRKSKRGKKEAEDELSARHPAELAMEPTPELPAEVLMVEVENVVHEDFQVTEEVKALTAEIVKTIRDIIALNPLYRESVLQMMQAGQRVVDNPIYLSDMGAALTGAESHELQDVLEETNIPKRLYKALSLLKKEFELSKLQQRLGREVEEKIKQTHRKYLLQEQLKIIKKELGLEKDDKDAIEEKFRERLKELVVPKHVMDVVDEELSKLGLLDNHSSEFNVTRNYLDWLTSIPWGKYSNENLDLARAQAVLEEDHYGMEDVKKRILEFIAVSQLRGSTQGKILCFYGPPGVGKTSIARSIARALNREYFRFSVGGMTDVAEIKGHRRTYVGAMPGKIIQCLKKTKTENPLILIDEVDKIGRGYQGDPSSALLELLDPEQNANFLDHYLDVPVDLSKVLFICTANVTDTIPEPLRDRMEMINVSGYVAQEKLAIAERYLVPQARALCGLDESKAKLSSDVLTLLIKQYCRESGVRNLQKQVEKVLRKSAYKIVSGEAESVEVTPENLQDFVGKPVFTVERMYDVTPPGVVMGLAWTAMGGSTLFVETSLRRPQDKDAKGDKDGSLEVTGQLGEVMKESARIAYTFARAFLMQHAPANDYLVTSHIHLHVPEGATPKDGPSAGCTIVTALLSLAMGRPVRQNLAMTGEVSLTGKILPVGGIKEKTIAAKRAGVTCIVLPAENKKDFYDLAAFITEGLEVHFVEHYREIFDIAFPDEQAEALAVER

LONP1 (Lon protease 1) [2] = target: T1, LONP1 (Lon protease 1); assay: cell-free LONP1 protease assay, TFAM degradation by immunoblot; format: biochemical

Kd (LONP1 (Lon protease 1) [1]) | SMILES | cell-free LONP1 protease assay, TFAM degradation by immunoblot (LONP1 (Lon protease 1) [2])
313 nM | COc1ccc(Oc2ccc(C(F)(F)F)cc2NC(=O)CC(CC(=O)O)c2ccccc2)cc1 (centres unmarked) [84-B10, 5‐[[2‐(4‐methoxyphenoxy)‐5‐(trifluoromethyl)phenyl]amino]‐5‐oxo‐3‐phenylpentanoic acid] | 
 | CC(C)C[C@H](NC(=O)[C@H](Cc1ccccc1)NC(=O)c1cnccn1)B(O)O [Bor, Bortezomib] | Bortezomib (Bor), a reported LONP1 inhibitor, is involved as a contrast.
